The values that follow come from patent US20240182460A1, “ALLOSTERIC CHROMENONE INHIBITORS OF PHOSPHOINOSITIDE 3-KINASE (PI3K) FOR THE TREATMENT OF DISEASE” (PETRA PHARMA CORPORATION, priority 2022, published 2024).

For data set [1], the target named is T1, PI3Kα H1047R (Homo sapiens, UniProt P42336, H1047R).
T1 construct: The MDA-MB-453 (ATCC-HTB-131) cell line (PI3Kα H1047R); host or cells: MDA-MB-453
In words: PI3Kα H1047R mutant in vitro cell based assay, MDA-MB-453 cells (AlphaLisa SureFire). To be noted: MDA-MB-453 cell line, 0% FBS, 3 hours treatment. From the text:
PI3K-Alpha Kinase (PI3Kα) Activity: Wild-Type PI3Kα, H1047R Mutant PI3Kα, and E545K Mutant PI3Kα In Vitro Cell Based Assays and Determination of IC50 Values for Inhibitors
The MDA-MB-453 (ATCC-HTB-131) cell line (PI3Kα H1047R) and MCF-7 (ATCC-HTB-22) cell line (PI3Kα E545K), MDA-MB-361 (ATCC-HTB-27) cell line (PI3Kα E545K), and SKBR3 (ATCC-HTB-30) cell line (wild type PI3Kα) were obtained from the American Type Culture Collection (Manassas, VA). MDA-MB-453 cells were maintained in Dulbecco's Modified Eagle Media (DMEM, Gibco 12430) supplemented with 10% Fetal Bovine Serum, heat inactivated (FBS HI, Gibco 10082), 1× non-essential amino acids (NEAA, Gibco 11140), 1 mM sodium pyruvate (Gibco 11360) and 1× Anti-Anti (Gibco 15240). MCF-7 cells were maintained in Minimum Essential Media (MEM) (Gibco 11095) supplemented with 10% Fetal Bovine Serum, heat inactivated (FBS HI, Gibco 10082), 1× non-essential amino acids (NEAA, Gibco 11140), 1 mM sodium pyruvate (Gibco 11360), 1× Anti-Anti (Gibco 15240) and 10 μg/mL human insulin (Sigma I 9278). MDA-MB-361 cells were maintained in Dulbecco's Modified Eagle Media (DMEM, Gibco 12430) supplemented with 20% Fetal Bovine Serum, heat inactivated (FBS HI, Gibco 10082), 1× non-essential amino acids (NEAA, Gibco 11140), 1 mM sodium pyruvate (Gibco 11360) and 1× Anti-Anti (Gibco 15240). SKBR3 cells were maintained in McCoy's 5A (Gibco 16600) supplemented with 10% Fetal Bovine Serum, heat inactivated (FBS HI, Gibco 10082), and 1× Anti-Anti (Gibco 15240). Cultures were maintained in a humidified incubator at 37° C. under 5% CO2/95% air.
For compound testing in 0% FBS, MDA-MB-453, MCF-7 and SKBR3 cells were seeded at a density of 1.5×10^4, 1.0×10^4, and 1.0×10^4 cells, respectively, per well in white 384-well plates in 20 μl of Minimum Essential Media (MEM) assay media with 1×NEAA, 1 mM sodium pyruvate, and 1 μg/mL human insulin (Sigma 19278) (Assay Medium); while MDA-MB-361 cells were seeded at a density of 1.5×10^4 per well in white 384-well plates in 20 μl Assay Medium without insulin. After plating, cells were allowed to attach overnight. Compounds dissolved in 10 mM stock solutions in DMSO were serially diluted 1:3 in DMSO to generate a 10-point dilution series and plated using an acoustic liquid handler system (Echo 550 Series Liquid Handler, Labcyte). A 5× intermediate compound dilution plate in MEM with 1×NEAA and 1 mM sodium pyruvate (150 μM starting compound concentration in 1.5% DMSO) was then prepared. Five μl of the intermediate serially diluted compounds were added to the cell plate to final concentrations ranging from […] in 0.3% DMSO. 0.3% DMSO alone was used to establish the maximum (MAX) signal and GDC-0032 at a final concentration of 1 μM was used as a reference compound for the minimum (MIN) signal. After 3 hours treatment, the medium was removed, and the cells were lysed in 10 μL of 1× SureFire Lysis buffer with shaking for 10 minutes at room temperature. The Acceptor Mix (Reaction Buffer 1+Reaction Buffer 2+Activation Buffer+SureFire Ultra Acceptor Beads) was prepared by diluting Activation buffer 25-fold in combined Reaction Buffer 1 and Reaction Buffer 2.
The Acceptor beads were diluted 50-fold in the combined Reaction Buffers. Five μL of Acceptor Mix was added to each well, the plate was sealed and covered with foil and incubated for 1 hour at room temperature. The Donor Mix (dilution buffer+SureFire Ultra Donor Beads) was prepared by diluting Donor Beads 50-fold in dilution buffer. Five μL of the Donor Mix was added to each well and the plate sealed and covered with foil and incubated for 1-2 hours at room temperature in the dark. The plates were read on a Neo2 plate reader instrument from Biotek using standard AlphaLisa settings.
Compounds were tested in duplicate and the % inhibition at each compound concentration was used to generate two dose response curves. One IC50 was generated using average % inhibition at each compound concentration. […]
Background: Alpha assays give light when donor and acceptor beads are brought close together.

The target in data set [2] is T2, PI3Kα E545K (Homo sapiens, UniProt P42336, E545K). In words: PI3Kα E545K mutant in vitro cell based assay, MCF-7 cells. Conditions: MCF-7 cell line, 0% FBS, 3 hours treatment. In short, it runs like this:
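MCF-7 cells (PI3Kα E545K) in serum-free MEM with 1 μg/mL insulin were treated 3 h with 10-point 1:3 dilutions in 0.3% DMSO. Lysates were read by SureFire AlphaLisa. IC50 was fitted by 4-parameter logistic to % inhibition relative to DMSO (max) and 1 μM GDC-0032 (min), duplicates averaged.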

Data set [3] concerns the target T2, PI3Kα E545K. In words: PI3Kα E545K mutant in vitro cell based assay, MDA-MB-361 cells. Also noted: MDA-MB-361 (ATCC-HTB-27) cell line (PI3Kα E545K); host or cells: MDA-MB-361. Conditions: MDA-MB-361 cell line, 0% FBS, no insulin, 3 hours treatment. The procedure, abridged: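 MDA-MB-361 cells (PI3Kα E545K) seeded in serum-free MEM assay medium without insulin, attached overnight, then treated 3 h with compound (10-point 1:3 series, 0.3% DMSO). AlphaLISA SureFire readout of lysates. IC50 by 4-parameter fit, normalized to DMSO (max) and 1 μM GDC-0032 (min).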

Data set [4] is described as follows: Metabolic stability and intrinsic clearance in human liver microsomes (MICS). Conditions: pH 7.4. It is filed as in vitro ADME. In short, it runs like this: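 Test compound (1 μM final) incubated at 37° C with liver microsomes (0.5 mg/mL protein) in 100 mM phosphate buffer pH 7.4, with 1 mM NADPH or without cofactor; sampled at 0.5–60 min, quenched with cold acetonitrile. Parent remaining quantified by LC-MS/MS; t1/2 from ln-% remaining slope converted to CLint (μL/min/mg protein).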
Background: Liver microsomes are a subcellular fraction often used to study metabolism.

Like-named read-outs stand apart in the source and are kept apart here.

T2 sequence (P42336 whole entry E545K): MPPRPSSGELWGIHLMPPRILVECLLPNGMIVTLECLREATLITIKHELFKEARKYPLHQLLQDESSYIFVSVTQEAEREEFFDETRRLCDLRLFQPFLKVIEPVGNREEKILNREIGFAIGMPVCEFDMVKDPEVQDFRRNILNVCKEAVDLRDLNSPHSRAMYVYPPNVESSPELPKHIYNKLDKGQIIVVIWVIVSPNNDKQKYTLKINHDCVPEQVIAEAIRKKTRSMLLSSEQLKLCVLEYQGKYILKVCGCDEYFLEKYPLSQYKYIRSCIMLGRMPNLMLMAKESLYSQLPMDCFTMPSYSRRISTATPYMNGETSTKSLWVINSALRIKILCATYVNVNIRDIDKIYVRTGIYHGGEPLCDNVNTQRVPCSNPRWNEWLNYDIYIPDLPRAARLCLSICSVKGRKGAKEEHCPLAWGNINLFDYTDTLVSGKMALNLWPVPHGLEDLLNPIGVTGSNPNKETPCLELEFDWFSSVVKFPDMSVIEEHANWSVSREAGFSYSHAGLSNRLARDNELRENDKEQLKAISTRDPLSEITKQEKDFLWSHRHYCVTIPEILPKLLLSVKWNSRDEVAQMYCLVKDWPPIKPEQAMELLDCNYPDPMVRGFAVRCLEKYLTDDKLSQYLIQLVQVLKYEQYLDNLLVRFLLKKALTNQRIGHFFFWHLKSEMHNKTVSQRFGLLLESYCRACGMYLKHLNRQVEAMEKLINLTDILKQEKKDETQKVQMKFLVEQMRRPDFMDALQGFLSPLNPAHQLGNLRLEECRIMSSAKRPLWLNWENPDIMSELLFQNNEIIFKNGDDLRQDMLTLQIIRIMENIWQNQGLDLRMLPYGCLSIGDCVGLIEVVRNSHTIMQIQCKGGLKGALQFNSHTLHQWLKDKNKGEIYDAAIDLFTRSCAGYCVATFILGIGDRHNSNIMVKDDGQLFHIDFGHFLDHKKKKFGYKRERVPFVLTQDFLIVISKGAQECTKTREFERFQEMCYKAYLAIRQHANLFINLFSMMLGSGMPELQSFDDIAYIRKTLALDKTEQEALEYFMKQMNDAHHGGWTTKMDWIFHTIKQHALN
T2 sequence (P27986 whole entry partner): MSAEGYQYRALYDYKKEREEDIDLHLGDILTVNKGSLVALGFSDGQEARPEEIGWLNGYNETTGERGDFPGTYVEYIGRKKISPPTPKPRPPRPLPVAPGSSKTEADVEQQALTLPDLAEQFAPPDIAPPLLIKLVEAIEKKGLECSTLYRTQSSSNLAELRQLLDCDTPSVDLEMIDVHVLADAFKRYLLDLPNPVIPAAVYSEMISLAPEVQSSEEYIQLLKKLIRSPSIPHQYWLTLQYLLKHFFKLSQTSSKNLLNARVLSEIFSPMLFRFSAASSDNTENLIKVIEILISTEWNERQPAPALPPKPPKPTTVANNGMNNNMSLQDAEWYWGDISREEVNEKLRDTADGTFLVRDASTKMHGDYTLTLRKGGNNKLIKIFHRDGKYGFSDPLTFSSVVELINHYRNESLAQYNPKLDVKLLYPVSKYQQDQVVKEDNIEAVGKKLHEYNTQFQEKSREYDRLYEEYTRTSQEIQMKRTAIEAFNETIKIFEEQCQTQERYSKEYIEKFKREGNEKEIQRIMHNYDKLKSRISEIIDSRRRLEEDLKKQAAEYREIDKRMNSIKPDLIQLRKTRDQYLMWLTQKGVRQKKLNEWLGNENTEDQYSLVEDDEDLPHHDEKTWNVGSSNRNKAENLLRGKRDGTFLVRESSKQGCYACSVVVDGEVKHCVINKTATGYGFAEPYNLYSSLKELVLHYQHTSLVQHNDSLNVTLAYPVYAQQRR
T1 sequence (P42336 whole entry H1047R): as the sequence (P42336 whole entry E545K) above, with K545E, H1047R counted along it
T1 sequence (P27986 whole entry partner): as the sequence (P27986 whole entry partner) above

In general, IC50 refers to the point on the concentration scale where inhibition reaches its midpoint. Low values mean higher potency, high ones lower potency. For `Cc1cc([C@@H](C)Oc2ccc(Cl)nc2C(N)=O)c2oc(-c3ccc4nn(C)cc4c3)cc(=O)c2c1` [Example 52A, 6-Chloro-3-[(1R)-1-[6-methyl-2-(2-methylindazol-5-yl)-4-oxo-chromen-8-yl]ethoxy]pyridine-2-carboxamide], the IC50 in data set [1] was below 100 nM; in data set [2] it was below 500 nM; in data set [3] it was below 500 nM.

Take `Cc1cc([C@@H](C)Oc2ccc(Cl)nc2C(N)=O)c2oc(-c3ccc4nc(C)sc4c3)c(C)c(=O)c2c1` [Example 68A, 6-Chloro-3-[(1R)-1-[3,6-dimethyl-2-(2-methyl-1,3-benzothiazol-6-yl)-4-oxo-chromen-8-yl]ethoxy]pyridine-2-carboxamide]: the figures for the half-maximal inhibitory concentration (IC50) in data set [1], in data set [2] and in data set [3] were below 100 nM, below 500 nM and below 500 nM, respectively.

In the case of `Cc1cc([C@@H](C)Oc2ccc(Cl)nc2C(N)=O)c2oc(-c3cc(C)c4nn(C)cc4c3)c(C)c(=O)c2c1` [Example 45C, 6-Chloro-3-[(1R)-1-[2-(2,7-dimethylindazol-5-yl)-3,6-dimethyl-4-oxo-chromen-8-yl]ethoxy]pyridine-2-carboxamide], the half-inhibitory concentration (IC50) in data set [1] is below 100 nM; in data set [2] it was below 500 nM.

With `Cc1cc([C@@H](C)Oc2ccc(Cl)nc2-c2noc(=O)[nH]2)c2oc(-c3ccccc3)c(C)c(=O)c2c1` [Example 2, 3-[6-Chloro-3-[(1R)-1-(3,6-dimethyl-4-oxo-2-phenyl-chromen-8-yl)ethoxy]-2-pyridyl]-4H-1,2,4-oxadiazol-5-one], the microsomal CLint at 1 μM in data set [4] (human liver microsomes 0.5 mg/mL, 1 μM compound, read-out: intrinsic clearance in human MICS) was below 50 µL/min/mg. The IC50 in data set [1] is below 100 nM; in data set [2] it was below 500 nM.

As for `Cc1cc([C@@H](C)Oc2ccc(Cl)nc2S(N)(=O)=O)c2oc(-c3cnc(C4CC4)nc3)c(C)c(=O)c2c1` [Example 83A, 6-Chloro-3-[(1R)-1-[2-(2-cyclopropylpyrimidin-5-yl)-3,6-dimethyl-4-oxo-chromen-8-yl]ethoxy]pyridine-2-sulfonamide], the microsomal CLint at 1 μM in data set [4] (human, microsomes) was below 50 µL/min/mg. The IC50 in data set [1] is below 100 nM; in data set [2], below 500 nM.

`Cc1cc([C@@H](C)Oc2ccc(Cl)nc2S(N)(=O)=O)c2oc(C3CC3)c(C)c(=O)c2c1` [Example 74A, 6-Chloro-3-[(1R)-1-(2-cyclopropyl-3,6-dimethyl-4-oxo-chromen-8-yl)ethoxy]pyridine-2-sulfonamide]: the 50% inhibitory concentration (IC50) in data set [1] is below 100 nM; in data set [2], below 500 nM; in data set [3], below 500 nM.

For `Cc1cc([C@@H](C)Oc2ccc(Cl)nc2N)c2oc(-c3cnn(C)c3)c(C)c(=O)c2c1` [Example 30B, 8-[(1R)-1-[(2-Amino-6-chloro-3-pyridyl)oxy]ethyl]-3,6-dimethyl-2-(1-methylpyrazol-4-yl)chromen-4-one], the concentration for half-maximal inhibition (IC50) in data set [1] was below 100 nM; in data set [2], below 500 nM; in data set [3], below 500 nM.

Take `Cc1cc([C@@H](C)Oc2ccc(Cl)nc2S(C)(=O)=O)c2oc(-c3cnn(C)c3)c(C)c(=O)c2c1` [Example 146A, 8-[(1R)-1-[(6-Chloro-2-methylsulfonyl-3-pyridyl)oxy]ethyl]-3,6-dimethyl-2-(1-methylpyrazol-4-yl)chromen-4-one]: the IC50 in data set [1] was below 100 nM; in data set [2], below 500 nM; in data set [3], below 500 nM.

In the case of `Cc1cc([C@@H](C)Oc2ccc(Cl)nc2S(C)(=O)=O)c2oc(-c3cnn(CCO)c3)c(C)c(=O)c2c1` [Example 29B, 8-[(1R)-1-[(6-Chloro-2-methylsulfonyl-3-pyridyl)oxy]ethyl]-2-[1-(2-hydroxyethyl)pyrazol-4-yl]-3,6-dimethyl-chromen-4-one], the IC50 was below 100 nM in data set [1], below 500 nM in data set [2] and below 500 nM in data set [3].

As for `Cc1cc([C@@H](C)Oc2ccc(Cl)nc2S(N)(=O)=O)c2oc(-c3ccc(S(C)(=O)=O)cc3)c(C)c(=O)c2c1` [Example 31C, 6-Chloro-3-[(1R)-1-[3,6-dimethyl-2-(4-methylsulfonylphenyl)-4-oxo-chromen-8-yl]ethoxy]pyridine-2-sulfonamide], the IC50 in data set [1] is below 100 nM; in data set [2] it was below 500 nM; in data set [3], below 500 nM.

On to `Cc1cc([C@@H](C)Oc2ccc(Cl)nc2C(N)=O)c2oc(-c3ccc4[nH]ncc4c3)c(C)c(=O)c2c1` [Example 22B, 6-Chloro-3-[(1R)-1-[2-(1H-indazol-5-yl)-3,6-dimethyl-4-oxo-chromen-8-yl]ethoxy]pyridine-2-carboxamide], for which the IC50 in data set [1] was below 100 nM; in data set [2], below 500 nM; in data set [3] it was below 500 nM.

On to `Cc1cc(C(C)Oc2ccc(Cl)nc2C)c2oc(-c3cccnc3)c(C)c(=O)c2c1` (single isomer, unassigned; isomer 2) [Example 10, 8-[1-[(6-Chloro-2-methyl-3-pyridyl)oxy]ethyl]-3,6-dimethyl-2-(3-pyridyl)chromen-4-one, Isomer 2], for which the IC50 is below 100 nM in data set [1] and below 500 nM in data set [2].

`Cc1cc([C@@H](C)Oc2cccnc2S(N)(=O)=O)c2oc(-c3ccccc3)c(C)c(=O)c2c1` [Example 94C, 3-[(1R)-1-(3,6-Dimethyl-4-oxo-2-phenyl-chromen-8-yl)ethoxy]pyridine-2-sulfonamide]: the values for the half-inhibitory concentration (IC50) in data set [1] and in data set [2] were below 100 nM and below 500 nM, respectively.

Regarding `Cc1cc([C@@H](C)Oc2ccc(Cl)nc2C)c2oc(-c3ccccc3)c(C)c(=O)c2c1` [Example 1, 8-[(1R)-1-[(6-Chloro-2-methyl-3-pyridyl)oxy]ethyl]-3,6-dimethyl-2-phenyl-chromen-4-one], the values for the IC50 in data set [1] and in data set [2] were below 100 nM and below 500 nM, respectively.
